Assay results published in US20100298141A1, “SUBSTITUTED PYRIDINE N-OXIDE HERBICIDES” (E. I. DU PONT DE NEMOURS AND COMPANY, priority 2007, published 2010).

What was measured:
Conditions in all cases: scale 0 to 100
[1] = system: green foxtail; assay: Test D preemergence test; assay type: in vivo, Setaria viridis
Text: (§1) Seeds of plant species selected from annual bluegrass (Poa annua), blackgrass (Alopecurus myosuroides), downy bromegrass (Bromus tectorum), field violet (Viola arvensis), green foxtail (Setaria viridis), Italian ryegrass (Lolium multiflorum), littleseed canarygrass (Phalaris minor), spring wheat (Triticum aestivum), wild oat (Avena fatua), […]), winter barley (Hordeum vulgare), and winter wheat (Triticum aestivum) were planted and treated preemergence with test chemicals formulated in a non-phytotoxic solvent mixture which included a surfactant. […] A dash (-) response means no test result.

[2] = system: broadleaf signalgrass; assay: Test G preemergence test; assay type: in vivo, Brachiaria platyphylla
[3] = system: fall panicum; assay: Test G preemergence test; assay type: in vivo, Panicum dichotomiflorum
[4] = system: millet; assay: Test G preemergence test; assay type: in vivo, Panicum miliaceum
[5] = system: large crabgrass; assay: Test G preemergence test; assay type: in vivo, Digitaria sanguinalis
[6] = system: giant foxtail; assay: Test G preemergence test; assay type: in vivo, Setaria faberii
[7] = system: eastern black nightshade; assay: Test G preemergence test; assay type: in vivo, Solanum ptycanthum
[8] = system: lambsquarters; assay: Test G preemergence test; assay type: in vivo, Chenopodium album
[9] = system: cotton; assay: Test G preemergence test; assay type: in vivo, Gossypium hirsutum
[10] = system: windgrass; assay: Test D preemergence test; assay type: in vivo, Apera spica-venti
Text: as §1

| SMILES | Plant response rating, Foxtail, Green ([1]; 31 g ai/ha) | Plant response rating, Foxtail, Green ([1]; 62 g ai/ha) | Plant response rating, Foxtail, Green ([1]; 125 g ai/ha) | Plant response rating, Foxtail, Green ([1]; 250 g ai/ha) | Plant response rating, Signalgrass ([2]; 31 g ai/ha) | Plant response rating, Signalgrass ([2]; 62 g ai/ha) | Plant response rating, Signalgrass ([2]; 125 g ai/ha) | Plant response rating, Signalgrass ([2]; 250 g ai/ha) | Plant response rating, Fall Panicum ([3]; 31 g ai/ha) | Plant response rating, Fall Panicum ([3]; 62 g ai/ha) | Plant response rating, Fall Panicum ([3]; 125 g ai/ha) | Plant response rating, Fall Panicum ([3]; 250 g ai/ha) | Plant response rating, Millet ([4]; 31 g ai/ha) | Plant response rating, Millet ([4]; 62 g ai/ha) | Plant response rating, Millet ([4]; 125 g ai/ha) | Plant response rating, Millet ([4]; 250 g ai/ha) | Plant response rating, Crabgrass, Large ([5]; 31 g ai/ha) | Plant response rating, Crabgrass, Large ([5]; 62 g ai/ha) | Plant response rating, Crabgrass, Large ([5]; 125 g ai/ha) | Plant response rating, Crabgrass, Large ([5]; 250 g ai/ha) | other results |
| --- | --- | --- | --- | --- | --- | --- | --- | --- | --- | --- | --- | --- | --- | --- | --- | --- | --- | --- | --- | --- | --- |
| Cc1cc[n+]([O-])c(S(=O)(=O)C(C)c2c(C(F)(F)F)nn(C)c2Cl)c1 (racemic) [Compound 14] | 0 | 20 | 65 | 80 | 0 | 15 | 20 | 85 | 15 | 50 | 70 | 100 | 0 | 15 | 20 | 75 | 0 | 45 | 100 | 100 | Plant response rating, Foxtail, Giant ([6]; 31 g ai/ha): 0; Plant response rating, Foxtail, Giant ([6]; 62 g ai/ha): 20; Plant response rating, Foxtail, Giant ([6]; 125 g ai/ha): 100; Plant response rating, Foxtail, Giant ([6]; 250 g ai/ha): 100; Plant response rating, Nightshade ([7]; 31 g ai/ha): 0; Plant response rating, Nightshade ([7]; 62 g ai/ha): 0; Plant response rating, Nightshade ([7]; 125 g ai/ha): 0; Plant response rating, Nightshade ([7]; 250 g ai/ha): 55; Plant response rating, Lambsquarters ([8]; 31 g ai/ha): 0; Plant response rating, Lambsquarters ([8]; 62 g ai/ha): 0; Plant response rating, Lambsquarters ([8]; 125 g ai/ha): 0; Plant response rating, Lambsquarters ([8]; 250 g ai/ha): 40; Plant response rating, Cotton ([9]; 31 g ai/ha): 0; Plant response rating, Cotton ([9]; 62 g ai/ha): 0; Plant response rating, Cotton ([9]; 125 g ai/ha): 0; Plant response rating, Cotton ([9]; 250 g ai/ha): 0; Plant response rating, Windgrass ([10]; 31 g ai/ha): 0; Plant response rating, Windgrass ([10]; 62 g ai/ha): 75; Plant response rating, Windgrass ([10]; 125 g ai/ha): 100; Plant response rating, Windgrass ([10]; 250 g ai/ha): 100 |
| Cn1nc(C(F)(F)F)c(CS(=O)(=O)c2ccc(Cl)c[n+]2[O-])c1OC(F)F [Compound 7] | 0 | 20 | 20 | 55 | 15 | 35 | 90 | 100 | 0 | 80 | 90 | 100 | 0 | 55 | 85 | 100 | 0 | 0 | 20 | 90 | Plant response rating, Foxtail, Giant ([6]; 31 g ai/ha): 0; Plant response rating, Foxtail, Giant ([6]; 62 g ai/ha): 20; Plant response rating, Foxtail, Giant ([6]; 125 g ai/ha): 25; Plant response rating, Foxtail, Giant ([6]; 250 g ai/ha): 55; Plant response rating, Nightshade ([7]; 31 g ai/ha): 0; Plant response rating, Nightshade ([7]; 62 g ai/ha): 0; Plant response rating, Nightshade ([7]; 125 g ai/ha): 0; Plant response rating, Nightshade ([7]; 250 g ai/ha): 0; Plant response rating, Lambsquarters ([8]; 31 g ai/ha): 0; Plant response rating, Lambsquarters ([8]; 62 g ai/ha): 0; Plant response rating, Lambsquarters ([8]; 125 g ai/ha): 0; Plant response rating, Lambsquarters ([8]; 250 g ai/ha): 15; Plant response rating, Cotton ([9]; 31 g ai/ha): 0; Plant response rating, Cotton ([9]; 62 g ai/ha): 0; Plant response rating, Cotton ([9]; 125 g ai/ha): 0; Plant response rating, Cotton ([9]; 250 g ai/ha): 0; Plant response rating, Windgrass ([10]; 31 g ai/ha): 65; Plant response rating, Windgrass ([10]; 62 g ai/ha): 100; Plant response rating, Windgrass ([10]; 125 g ai/ha): 100; Plant response rating, Windgrass ([10]; 250 g ai/ha): 100 |
| Cn1nc(C(F)(F)F)c(C(Cl)S(=O)(=O)c2cccc[n+]2[O-])c1Cl (stereo not drawn) [Compound 12] | 55 | 60 | 65 | 100 | 0 | 0 | 75 | 75 | 90 | 100 | 100 | 100 | 50 | 50 | 100 | 100 | 15 | 60 | 95 | 100 | Plant response rating, Foxtail, Giant ([6]; 31 g ai/ha): 45; Plant response rating, Foxtail, Giant ([6]; 62 g ai/ha): 75; Plant response rating, Foxtail, Giant ([6]; 125 g ai/ha): 100; Plant response rating, Foxtail, Giant ([6]; 250 g ai/ha): 100; Plant response rating, Nightshade ([7]; 31 g ai/ha): 0; Plant response rating, Nightshade ([7]; 62 g ai/ha): 0; Plant response rating, Nightshade ([7]; 125 g ai/ha): 0; Plant response rating, Nightshade ([7]; 250 g ai/ha): 70; Plant response rating, Lambsquarters ([8]; 31 g ai/ha): 0; Plant response rating, Lambsquarters ([8]; 62 g ai/ha): 0; Plant response rating, Lambsquarters ([8]; 125 g ai/ha): 0; Plant response rating, Lambsquarters ([8]; 250 g ai/ha): 15; Plant response rating, Cotton ([9]; 31 g ai/ha): 0; Plant response rating, Cotton ([9]; 62 g ai/ha): 0; Plant response rating, Cotton ([9]; 125 g ai/ha): 0; Plant response rating, Cotton ([9]; 250 g ai/ha): 0; Plant response rating, Windgrass ([10]; 31 g ai/ha): 100; Plant response rating, Windgrass ([10]; 62 g ai/ha): 100; Plant response rating, Windgrass ([10]; 125 g ai/ha): 100; Plant response rating, Windgrass ([10]; 250 g ai/ha): 100 |
